Some results are limits rather than exact numbers.

Here are results for five molecules from ChEMBL document CHEMBL4312009, “Multigram scale synthesis of polycyclic lactones and evaluation of antitumor and other biological properties” (Eur J Med Chem, 2020).

The test system of one data set is CHO. The experiment in a line: Cytotoxicity against CHO cells assessed as reduction in cell viability. To be noted: Cricetulus griseus. It is filed as cell-based.
In another data set the test system is CYP1A1. Briefly: Selectivity index, ratio of IC50 of cytotoxicity against CHO cells to IC50 for bioactivation in CYP1A1 (unknown origin) transfected CHO cells assessed as CYP1A1-mediated drug activation by measuring reduction in cell viability. The class given is cell-based. The settings on record: hamster, CHO cells and CYP1A1-transfected CHO cells; read-out: Ratio IC50.

The test system of data set [1] is HT-29. The experiment in a line: Antiproliferative activity against human HT-29 cells assessed as reduction in cell viability incubated for 24 hrs in hypoxia condition by MTT assay. It is filed as functional, cell-based. To be noted: HT-29, 24 h.
Data set [2] has as its system HT-29. The experiment in a line: Antiproliferative activity against human HT-29 cells assessed as reduction in cell viability incubated for 24 hrs by MTT assay. To be noted: HT-29, 24 h. It is filed as functional, cell-based.
The test system of data set [3] is HT-29. The experiment in a line: Selectivity index, ratio of IC50 of antiproliferative activity against human HT-29 cells in normoxia to IC50 of antiproliferative activity against human HT-29 cells in hypoxia condition. The class given is functional.
Data set [4] concerns HeLa. Briefly: Cell cycle arrest in human HeLa cells incubated for 21 hrs by propidium iodide based flow cytometry. The class given is functional.
The target in data set [5] is Microtubule-associated protein tau (Homo sapiens) (UniProt P10636). Briefly: Inhibition of human Tau at 40 uM relative to control.
Microtubule-associated protein tau (Homo sapiens), sequence (P10636 whole entry): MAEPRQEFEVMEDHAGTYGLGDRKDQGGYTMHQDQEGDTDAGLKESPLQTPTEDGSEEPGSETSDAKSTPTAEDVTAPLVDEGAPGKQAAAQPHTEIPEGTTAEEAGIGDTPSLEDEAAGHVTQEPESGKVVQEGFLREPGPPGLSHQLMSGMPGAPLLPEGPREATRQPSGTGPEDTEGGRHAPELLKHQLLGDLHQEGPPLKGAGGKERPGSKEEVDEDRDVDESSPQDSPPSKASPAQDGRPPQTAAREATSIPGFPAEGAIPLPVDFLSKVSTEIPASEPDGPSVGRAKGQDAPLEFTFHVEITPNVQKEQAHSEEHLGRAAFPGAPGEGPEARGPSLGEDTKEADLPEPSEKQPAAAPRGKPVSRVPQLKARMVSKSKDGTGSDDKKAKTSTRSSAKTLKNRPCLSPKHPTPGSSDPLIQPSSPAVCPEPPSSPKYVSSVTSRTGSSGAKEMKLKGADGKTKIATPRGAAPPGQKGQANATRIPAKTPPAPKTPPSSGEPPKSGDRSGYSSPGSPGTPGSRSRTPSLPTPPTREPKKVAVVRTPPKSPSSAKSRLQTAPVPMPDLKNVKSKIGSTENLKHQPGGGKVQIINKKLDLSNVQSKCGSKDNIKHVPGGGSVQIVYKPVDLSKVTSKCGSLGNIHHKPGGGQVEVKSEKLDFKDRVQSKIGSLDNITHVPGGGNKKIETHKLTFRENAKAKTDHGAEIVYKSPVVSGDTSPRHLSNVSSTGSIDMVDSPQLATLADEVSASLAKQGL
Data set [6] deals with GTPase KRas (Homo sapiens), P01116 [UNDEFINED MUTATION]. The experiment in a line: Inhibition of KRas mutant in human HCT116 cells […] assessed as cell viability by measuring ATP at 2 uM relative to control. It is filed as cell-based.
GTPase KRas (Homo sapiens), P01116 [UNDEFINED MUTATION], sequence (P01116 whole entry, looked up, change not shown): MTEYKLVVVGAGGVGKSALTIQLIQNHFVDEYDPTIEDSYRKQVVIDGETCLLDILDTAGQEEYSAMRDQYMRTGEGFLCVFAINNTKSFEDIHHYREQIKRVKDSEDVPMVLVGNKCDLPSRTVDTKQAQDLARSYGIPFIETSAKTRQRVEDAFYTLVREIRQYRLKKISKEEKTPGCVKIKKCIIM
For data set [7] the test system is unchanged. Briefly: Inhibition of KRas mutant in human HCT116 cells assessed as cell viability by measuring ATP at 2 uM relative to control. It is filed as cell-based.
Data set [8] has the same test system. The experiment in a line: Inhibition of KRas mutant in human DLD1 cells assessed as cell viability by measuring ATP at 20 uM relative to control. The class given is cell-based.
Data set [9] has as its system HeLa. The experiment in a line: Cell cycle arrest in human HeLa cells assessed as effect on 2N stage incubated for 21 hrs by propidium iodide based flow cytometry. The class given is functional.
The target in data set [10] is Proprotein convertase subtilisin/kexin type 9 (Homo sapiens) (UniProt Q8NBP7). The experiment in a line: Inhibition of human PCSK9 at 40 uM relative to control.
Proprotein convertase subtilisin/kexin type 9 (Homo sapiens), sequence (Q8NBP7 31-152 limits assumed): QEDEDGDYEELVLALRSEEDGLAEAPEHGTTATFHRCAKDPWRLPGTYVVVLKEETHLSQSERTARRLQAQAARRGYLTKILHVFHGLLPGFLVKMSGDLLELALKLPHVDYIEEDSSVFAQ
Proprotein convertase subtilisin/kexin type 9 (Homo sapiens), sequence (Q8NBP7 153-692 limits assumed): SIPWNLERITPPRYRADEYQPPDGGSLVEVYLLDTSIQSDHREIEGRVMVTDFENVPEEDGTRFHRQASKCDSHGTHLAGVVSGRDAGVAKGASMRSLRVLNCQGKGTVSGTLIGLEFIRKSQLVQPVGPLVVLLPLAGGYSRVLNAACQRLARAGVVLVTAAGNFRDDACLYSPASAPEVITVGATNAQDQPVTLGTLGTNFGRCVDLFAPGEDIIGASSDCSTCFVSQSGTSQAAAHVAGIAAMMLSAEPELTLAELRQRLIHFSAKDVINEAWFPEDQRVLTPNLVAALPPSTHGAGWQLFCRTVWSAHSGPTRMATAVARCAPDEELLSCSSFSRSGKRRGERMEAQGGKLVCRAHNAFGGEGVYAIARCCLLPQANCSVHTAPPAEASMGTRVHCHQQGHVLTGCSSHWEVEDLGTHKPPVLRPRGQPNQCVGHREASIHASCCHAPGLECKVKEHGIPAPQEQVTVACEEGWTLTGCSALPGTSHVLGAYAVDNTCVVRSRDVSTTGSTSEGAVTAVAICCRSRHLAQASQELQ
In data set [11] the test system is GTPase KRas (Homo sapiens), P01116 [UNDEFINED MUTATION]. The experiment in a line: Inhibition of KRas mutant in human DLD1 cells assessed as cell viability by measuring ATP at 2 uM relative to control. The class given is cell-based.
Data set [12] deals with HeLa. Briefly: Cell cycle arrest in human HeLa cells assessed as effect on mitotic index incubated for 21 hrs by propidium iodide based flow cytometry. The class given is functional.
Data set [13] concerns GTPase KRas (Homo sapiens), P01116 [UNDEFINED MUTATION]. Briefly: Inhibition of KRas mutant in human DLD1 cells assessed as cell viability by measuring ATP. It is filed as cell-based.
Data set [14] has the same test system. Briefly: Inhibition of KRas mutant in human HCT116 cells assessed as cell viability by measuring ATP at 0.2 uM relative to control. The class given is cell-based.
Data set [15] deals with T1, Angiopoietin-like protein 8 (Homo sapiens) (UniProt Q6UXH0).
T1 sequence (whole entry): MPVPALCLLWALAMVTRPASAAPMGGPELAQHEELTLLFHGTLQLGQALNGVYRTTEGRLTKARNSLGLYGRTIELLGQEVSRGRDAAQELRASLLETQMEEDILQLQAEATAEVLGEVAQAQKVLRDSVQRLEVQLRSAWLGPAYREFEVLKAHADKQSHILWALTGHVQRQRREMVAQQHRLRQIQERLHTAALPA
Briefly: Inhibition of human Angptl8 at 40 uM relative to control.

In data set [16] the test system is GTPase KRas (Homo sapiens), P01116 [UNDEFINED MUTATION]. The experiment in a line: Inhibition of KRas mutant in human DLD1 cells assessed as cell viability by measuring ATP at 0.2 uM relative to control. The class given is cell-based.
For data set [17] the test system is unchanged. Briefly: Inhibition of KRas mutant in human HCT116 cells […] assessed as cell viability by measuring ATP. The class given is cell-based.
Data set [18] shares this test system. Briefly: Inhibition of KRas mutant in human HCT116 cells assessed as cell viability by measuring ATP at 20 uM relative to control. It is filed as cell-based.
Data set [19] concerns the target Sodium channel protein type 9 subunit alpha (Homo sapiens) (UniProt Q15858). Briefly: Inhibition of human Nav1.7 at 40 uM relative to control.
Data set [20] has as its system GTPase KRas (Homo sapiens), P01116 [UNDEFINED MUTATION]. The experiment in a line: Inhibition of KRas mutant in human HCT116 cells […] assessed as cell viability by measuring ATP at 20 uM relative to control. It is filed as cell-based.
Data set [21] concerns HeLa. The experiment in a line: Cell cycle arrest in human HeLa cells assessed as effect on S phase incubated for 21 hrs by propidium iodide based flow cytometry. The class given is functional.
For data set [22], the target named is Apolipoprotein C-III (Homo sapiens) (UniProt P02656). Briefly: Inhibition of human APOC3 at 40 uM relative to control.
Apolipoprotein C-III (Homo sapiens), sequence (P02656 whole entry): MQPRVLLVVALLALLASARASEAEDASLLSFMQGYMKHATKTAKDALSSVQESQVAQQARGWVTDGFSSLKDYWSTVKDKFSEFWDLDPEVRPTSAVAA
The nature of data set [23]: Activation of wnt pathway in mouse C2C12 cells assessed as increase in beta-catenin activity. The class given is cell-based.
Data set [24] has as its system GTPase KRas (Homo sapiens), P01116 [UNDEFINED MUTATION]. Briefly: Inhibition of KRas mutant in human SW480 cells assessed as cell viability by measuring ATP at 20 uM relative to control. The class given is cell-based.
Data set [25] has the same test system. The experiment in a line: Inhibition of KRas mutant in human SW480 cells assessed as cell viability by measuring ATP at 0.2 uM relative to control. The class given is cell-based.
Data set [26] shares this test system. The experiment in a line: Inhibition of KRas mutant in human SW480 cells assessed as cell viability by measuring ATP at 2 uM relative to control. It is filed as cell-based.
Data set [27] has the same test system. Briefly: Inhibition of KRas mutant in human HCT116 cells assessed as cell viability by measuring ATP. The class given is cell-based.
Data set [28] in a line: Activation of wnt pathway in mouse C2C12 cells assessed as increase in alkaline phosphatase activity. The class given is cell-based.
Data set [29] deals with GTPase KRas (Homo sapiens), P01116 [UNDEFINED MUTATION]. Briefly: Inhibition of KRas mutant in human HCT116 cells […] assessed as cell viability by measuring ATP at 0.2 uM relative to control. The class given is cell-based.
Data set [30] concerns HeLa. The experiment in a line: Cell cycle arrest in human HeLa cells assessed as effect on G1 phase incubated for 21 hrs by propidium iodide based flow cytometry. It is filed as functional.
Data set [31] concerns HeLa. The experiment in a line: Cell cycle arrest in human HeLa cells assessed as effect on 4N stage incubated for 21 hrs by propidium iodide based flow cytometry. The class given is functional.
Data set [32] has as its system GTPase KRas (Homo sapiens), P01116 [UNDEFINED MUTATION]. The experiment in a line: Inhibition of KRas mutant in human SW480 cells assessed as cell viability by measuring ATP. The class given is cell-based.

Sodium channel protein type 9 subunit alpha (Homo sapiens), sequence (Q15858 whole entry, looked up): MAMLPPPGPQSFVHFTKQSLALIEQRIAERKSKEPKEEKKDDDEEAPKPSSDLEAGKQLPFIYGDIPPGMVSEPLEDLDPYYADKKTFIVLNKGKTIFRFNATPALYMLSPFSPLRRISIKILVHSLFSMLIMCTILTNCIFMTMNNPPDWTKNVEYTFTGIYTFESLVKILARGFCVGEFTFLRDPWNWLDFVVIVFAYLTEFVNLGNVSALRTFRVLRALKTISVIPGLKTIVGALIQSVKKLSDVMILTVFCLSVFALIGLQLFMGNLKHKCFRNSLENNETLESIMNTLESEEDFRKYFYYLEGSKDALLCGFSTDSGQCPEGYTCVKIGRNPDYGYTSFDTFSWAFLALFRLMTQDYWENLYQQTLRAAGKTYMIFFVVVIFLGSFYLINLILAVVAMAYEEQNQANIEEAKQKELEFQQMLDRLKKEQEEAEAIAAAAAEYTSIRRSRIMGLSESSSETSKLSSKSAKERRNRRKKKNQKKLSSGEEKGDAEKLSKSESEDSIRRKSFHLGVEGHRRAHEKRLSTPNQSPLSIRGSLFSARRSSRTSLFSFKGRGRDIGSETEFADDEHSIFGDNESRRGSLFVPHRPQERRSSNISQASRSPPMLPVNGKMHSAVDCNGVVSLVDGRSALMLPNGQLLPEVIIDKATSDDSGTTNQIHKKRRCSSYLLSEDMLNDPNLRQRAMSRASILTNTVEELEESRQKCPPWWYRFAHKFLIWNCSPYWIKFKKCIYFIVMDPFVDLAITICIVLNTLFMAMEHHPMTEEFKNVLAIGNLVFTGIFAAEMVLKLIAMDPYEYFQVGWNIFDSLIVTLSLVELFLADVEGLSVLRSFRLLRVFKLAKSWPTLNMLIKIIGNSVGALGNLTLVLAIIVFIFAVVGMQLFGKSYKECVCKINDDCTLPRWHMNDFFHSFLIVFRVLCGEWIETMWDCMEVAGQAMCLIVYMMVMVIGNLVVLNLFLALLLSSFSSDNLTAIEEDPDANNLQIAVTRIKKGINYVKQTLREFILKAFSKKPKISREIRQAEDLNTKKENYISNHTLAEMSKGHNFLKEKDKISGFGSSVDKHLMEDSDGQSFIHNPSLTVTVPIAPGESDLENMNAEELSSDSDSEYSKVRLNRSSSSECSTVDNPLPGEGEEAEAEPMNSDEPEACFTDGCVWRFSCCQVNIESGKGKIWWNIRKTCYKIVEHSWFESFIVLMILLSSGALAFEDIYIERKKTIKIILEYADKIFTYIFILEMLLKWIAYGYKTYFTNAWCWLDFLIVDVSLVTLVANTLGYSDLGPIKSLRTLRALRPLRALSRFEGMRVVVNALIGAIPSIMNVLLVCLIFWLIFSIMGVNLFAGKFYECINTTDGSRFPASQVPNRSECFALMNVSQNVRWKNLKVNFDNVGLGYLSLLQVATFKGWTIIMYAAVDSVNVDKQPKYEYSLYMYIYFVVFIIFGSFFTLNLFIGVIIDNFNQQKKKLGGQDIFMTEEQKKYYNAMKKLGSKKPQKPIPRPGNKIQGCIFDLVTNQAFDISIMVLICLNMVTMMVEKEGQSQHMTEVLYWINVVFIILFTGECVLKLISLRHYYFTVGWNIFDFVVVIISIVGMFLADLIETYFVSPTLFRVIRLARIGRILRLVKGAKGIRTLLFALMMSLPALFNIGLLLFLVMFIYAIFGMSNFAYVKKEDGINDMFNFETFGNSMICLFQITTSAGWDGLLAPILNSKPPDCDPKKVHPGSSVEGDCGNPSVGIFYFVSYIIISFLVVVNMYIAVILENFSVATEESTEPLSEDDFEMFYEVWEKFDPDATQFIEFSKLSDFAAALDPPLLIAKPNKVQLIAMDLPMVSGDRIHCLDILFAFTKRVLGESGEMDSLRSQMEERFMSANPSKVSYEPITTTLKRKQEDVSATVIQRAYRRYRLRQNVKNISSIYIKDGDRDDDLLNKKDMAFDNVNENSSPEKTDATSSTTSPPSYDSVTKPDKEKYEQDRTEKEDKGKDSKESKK

With `Cc1c2ccncc2c(C)c2c1[nH]c1ccccc12` [ELLIPTECINE], the concentration for half-maximal inhibition (IC50) in the data set on CHO was determined as 20 nM. Moreover, the selectivity ratio in the data set with CYP1A1 came to 15.6.

Consider `CCc1c2c(nc3ccc(OC(=O)N4CCC(N5CCCCC5)CC4)cc13)-c1cc3c(c(=O)n1C2)COC(=O)[C@]3(O)CC` [IRINOTECAN], for which the half-inhibitory concentration (IC50) in the data set on HT-29 [1] was 3550 nM; in the data set with HT-29 [2], 3960 nM. Further, the “Ratio IC50” value with HT-29 [3] is 1.12.

In the case of `Cc1c2c(c(CCCCBr)c3c1Oc1ccccc1O3)C(=O)OC2`, the IC50 in the data set on HeLa [4] was 600 nM; in the data set on HeLa [9] it was 1500 nM; in the data set on HeLa [21], greater than 10000 nM. Further, the inhibition in [5] was determined as 56%; in data set [6] it was 58%; in data set [7], 56%; in [8], 76%; in [10], 35%; in data set [11] it was 45%. The inhibition result in [13] was “Dose-dependent effect”; in [14] it was 33%; in [15], 67%; in [16], 30%; in data set [17], “Dose-dependent effect”; in [18], 76%. Besides, the inhibition in data set [19] was determined as 0%; in [20] it was 53%; in data set [22], 67%; in [24], 63%; in data set [25], 7%; in data set [26] it was 62%. The inhibition result in data set [27] was “Dose-dependent effect”; in data set [29], 15%; in data set [32], “Dose-dependent effect”. The 50% effective concentration (EC50) was 1300 nM in the data set with HeLa [12]; greater than 20000 nM in data set [23]; 8200 nM in [28]; greater than 10000 nM with HeLa [30]; 1400 nM in the data set with HeLa [31].

On to `CCCCCCc1c2c(c(C)c3c1C(=O)OC3)Oc1ccccc1O2`, for which the IC50 is 1800 nM in the data set on HeLa [4]; 1520 nM with CHO; 2100 nM with HeLa [9]; greater than 10000 nM in the data set with HeLa [21]; 8930 nM with HT-29 [1]; 1330 nM in the data set with HT-29 [2]. The inhibition was 77% in data set [5]; 69% in data set [6]; 60% in data set [7]; 112% in data set [8]; 75% in [10]; 50% in data set [11]. Besides, the inhibition result was “Dose-dependent effect” in data set [13]; 12% in data set [14]; 86% in [15]; 14% in [16]; “Dose-dependent effect” in data set [17]; 91% in data set [18]. The inhibition in data set [20] was 62%; in [22], 75%; in [24], 86%; in data set [25], 21%; in data set [26], 58%; in [27], “Dose-dependent effect”. Besides, the results for the inhibition in data set [29] and in data set [32] were 52% and “Dose-dependent effect”, respectively. Besides, in the data set with CYP1A1, the selectivity ratio is 0.6. Also, the EC50 with HeLa [12] was greater than 10000 nM; in data set [23], greater than 20000 nM; in [28], 7600 nM; in the data set with HeLa [30] it was greater than 10000 nM; in the data set with HeLa [31], 2000 nM. Also, the “Ratio IC50” value in the data set with HT-29 [3] was determined as 0.15.

In the case of `CCCCc1c2c(c(C)c3c1C(=O)OC3)Oc1ccccc1O2`, the IC50 in the data set on HeLa [4] is 1700 nM; in the data set on CHO, 1480 nM; with HeLa [9], 2200 nM; in the data set with HeLa [21] it was greater than 10000 nM; in the data set with HT-29 [1], 7330 nM; in the data set on HT-29 [2], 1730 nM. Also, the inhibition amounted to 92% in data set [5]; 63% in [6]; 66% in data set [7]; 91% in data set [8]; 95% in data set [10]; 65% in [11]. For the same molecule, the inhibition result in [13] was “Dose-dependent effect”; in data set [14], 5%; in data set [15], 93%; in data set [16], 17%; in data set [17], “Dose-dependent effect”; in data set [18] it was 78%. For the same molecule, the inhibition in [19] turned out to be 76%; in data set [20], 80%; in [22], 89%; in [24], 138%; in [25], 17%; in data set [26] it was 73%. For the same molecule, the inhibition entry is “Dose-dependent effect” in data set [27], 67% in data set [29] and “Dose-dependent effect” in data set [32]. For the same molecule, the selectivity ratio in the data set on CYP1A1 was 3.7. The concentration for a half-maximal effect (EC50) is 2100 nM with HeLa [12]; greater than 20000 nM in data set [23]; 6700 nM in [28]; greater than 10000 nM in the data set on HeLa [30]; 2000 nM in the data set on HeLa [31]. Further, in the data set on HT-29 [3], the “Ratio IC50” value was found to be 0.24.
